Source: paper PMC5936891, “A focused library synthesis and cytotoxicity of quinones derived from the natural product bolinaquinone” (Royal Society Open Science, 2018)

Tests used:
[1] = test system: HT29 (colon carcinoma); experiment: MTT in vitro growth inhibition assay, HT29; type: cell-based; settings: Homo sapiens; for inhibition at 25 µM: HT-29, 25 µM of drug, 72 h, read-out: Percentage of Cell Growth Inhibition HT29; for GI50: HT-29, 72 h drug exposure
Description: (§1) With the desired bolinaquinone analogues 12–43 in hand, we examined their cytotoxicity against a panel of 11 tumour cell lines: HT29 (colon carcinoma), U87 and SJ-G2 (glioblastoma), MCF-7 (breast carcinoma), A2780 (ovarian carcinoma), H460 (lung carcinoma), A431 (skin carcinoma), Du145 (prostate carcinoma), BE2-C (neuroblastoma), MIA (pancreatic carcinoma), SMA (spontaneous murine astrocytoma) and a normal breast cell line (MCF10A). The inclusion of the MCF-10A cell line allowed a determination of a crude measure of relative toxicity while noting that the ultimate arbiter of toxicity requires in vivo evaluation. All analogues were initially screened at a 25 µM drug concentration.
(§2) Stock solutions were prepared as follows and stored at −20°C: drugs were stored as 40 mM solutions in DMSO. All cell lines were cultured in a humidified atmosphere 5% CO2 at 37°C. The cancer cell lines were maintained in Dulbecco's modified Eagle's medium (DMEM) (Trace Biosciences, Australia) supplemented with 10% fetal bovine serum, 10 mM sodium bicarbonate, penicillin (100 IU ml^−1), streptomycin (100 µg ml^−1) and glutamine (4 mM). The non-cancer MCF10A cell line was cultured in DMEM:F12 (1 : 1) cell culture media, 5% heat-inactivated horse serum, supplemented with penicillin (50 IU ml^−1), streptomycin (50 µg ml^−1), 20 mM Hepes, L-glutamine (2 mM), epidermal growth factor (20 ng ml^−1), hydrocortisone (500 ng ml^−1), cholera toxin (100 ng ml^−1) and insulin (10 ug ml^−1).
(§3) Cells in logarithmic growth were transferred to 96-well plates. Cytotoxicity was determined by plating cells in duplicate in 100 µl medium at a density of 2500–4000 cells per well. On day 0 (24 h after plating), when the cells were in logarithmic growth, 100 μl of medium with or without the test agent was added to each well. After 72 h, drug exposure growth inhibitory effects were evaluated using the MTT (3-[4,5-dimethylthiazol-2-yl]-2,5-diphenyl-tetrazolium bromide) assay and the absorbance read at 540 nm. Percentage growth inhibition was determined at a fixed drug concentration of 25 µM. A value of 100% is indicative of complete cell growth inhibition. Those analogues showing appreciable percentage growth inhibition underwent further dose–response analysis allowing for the calculation of a GI50 value. This value is the drug concentration at which cell growth is 50% inhibited based on the difference between the optical density values on day 0 and those at the end of drug exposure.

[2] = test system: U87 (glioblastoma); experiment: MTT in vitro growth inhibition assay, U87; type: cell-based; settings: for inhibition at 25 µM: 25 µM of drug, 72 h, read-out: Percentage of Cell Growth Inhibition U87; for GI50: 72 h drug exposure
Description: as §1, §2, §3

[3] = test system: MCF-7 (breast carcinoma); experiment: MTT in vitro growth inhibition assay, MCF-7; type: cell-based; settings: Homo sapiens; for inhibition at 25 µM: MCF7, 25 µM of drug, 72 h, read-out: Percentage of Cell Growth Inhibition MCF-7; for GI50: MCF7, 72 h drug exposure
Description: as §1, §2, §3

[4] = test system: A2780 (ovarian carcinoma); experiment: MTT in vitro growth inhibition assay, A2780; type: cell-based; settings: Homo sapiens; for inhibition at 25 µM: 25 µM of drug, 72 h, read-out: Percentage of Cell Growth Inhibition A2780; for GI50: 72 h drug exposure
Description: as §1, §2, §3

[5] = test system: H460 (lung carcinoma); experiment: MTT in vitro growth inhibition assay, H460; type: cell-based; settings: Homo sapiens; for inhibition at 25 µM: NCI-H460, 25 µM of drug, 72 h, read-out: Percentage of Cell Growth Inhibition H460; for GI50: NCI-H460, 72 h drug exposure
Description: as §1, §2, §3

[6] = test system: A431 (skin carcinoma); experiment: MTT in vitro growth inhibition assay, A431; type: cell-based; settings: Homo sapiens; for inhibition at 25 µM: A-431, 25 µM of drug, 72 h, read-out: Percentage of Cell Growth Inhibition A431; for GI50: A-431, 72 h, 72 h drug exposure
Description: as §1, §2, §3

[7] = test system: Du145 (prostate carcinoma); experiment: MTT in vitro growth inhibition assay, Du145; type: cell-based; settings: Homo sapiens; for inhibition at 25 µM: DU-145, 25 µM of drug, 72 h, read-out: Percentage of Cell Growth Inhibition Du145; for GI50: DU-145, 72 h, 72 h drug exposure
Description: as §1, §2, §3

[8] = test system: BE2-C (neuroblastoma); experiment: MTT in vitro growth inhibition assay, BE2-C; type: cell-based; settings: Homo sapiens, BE(2)-C, 72 h; for inhibition at 25 µM: 25 µM of drug, read-out: Percentage of Cell Growth Inhibition BE2-C; for GI50: 72 h drug exposure
Description: as §1, §2, §3

[9] = test system: SJ-G2 (glioblastoma); experiment: MTT in vitro growth inhibition assay, SJ-G2; type: cell-based; settings: for inhibition at 25 µM: 25 µM of drug, 72 h, read-out: Percentage of Cell Growth Inhibition SJ-G2; for GI50: 72 h drug exposure
Description: as §1, §2, §3

[10] = test system: MIA (pancreatic carcinoma); experiment: MTT in vitro growth inhibition assay, MIA; type: cell-based; settings: for inhibition at 25 µM: 25 µM of drug, 72 h, read-out: Percentage of Cell Growth Inhibition MIA; for GI50: 72 h drug exposure
Description: as §1, §2, §3

[11] = test system: SMA (spontaneous murine astrocytoma); experiment: MTT in vitro growth inhibition assay, SMA; type: cell-based; settings: Mus musculus; for inhibition at 25 µM: 25 µM of drug, 72 h, read-out: Percentage of Cell Growth Inhibition SMA; for GI50: 72 h drug exposure
Description: as §1, §2, §3

[12] = test system: MCF10A (normal breast cell line); experiment: MTT in vitro growth inhibition assay, MCF10A; type: cell-based; settings: Homo sapiens, MCF-10A; for inhibition at 25 µM: 25 µM of drug, 72 h, read-out: Percentage of Cell Growth Inhibition MCF10A; for GI50: normal breast cell line, 72 h drug exposure
Description: as §1, §2, §3

Row | SMILES | inhibition at 25 µM [1] | inhibition at 25 µM [2] | inhibition at 25 µM [3] | inhibition at 25 µM [4] | inhibition at 25 µM [5] | inhibition at 25 µM [6] | inhibition at 25 µM [7] | inhibition at 25 µM [8] | inhibition at 25 µM [9] | inhibition at 25 µM [10] | inhibition at 25 µM [11] | inhibition at 25 µM [12] | melting point | GI50 [2] | GI50 [3] | GI50 [4] | GI50 [8] | GI50 [9] | GI50 [10] | GI50 [11] | other results
1 | CCCNC1=CC(=O)C(NCCC)=C(c2ccc(C)cc2)C1=O [compound 38, 2,5-Bis(propylamino)3-p-tolylcyclohexa-2,5-diene-1,4-dione] | 59 ± 4% | 67 ± 5% | 57 ± 3% | 63 ± 4% | 51 ± 2% | 81 ± 0.3% | 56 ± 2% | 28 ± 12% | 50 ± 2% | 67 ± 3% | 73 ± 1% | 69 ± 3% | 166 to 168 °C | – | – | – | – | – | – | – | –
2 | COC1=CC(=O)C(OC)=C(c2ccccc2)C1=O [compound 12, 2,5-Dimethoxy-3-phenylcyclohexa-2,5-diene-1,4-dione] | 24 ± 1% | 12 ± 2% | 40 ± 3% | 75 ± 7% | < 10% | 10 ± 3% | < 10% | > 100% | 27 ± 6% | 31 ± 5% | 49 ± 8% | < 10% | 122 to 124 °C | 47 ± 2.2 µM | 22 ± 3.4 µM | 18 ± 0.7 µM | 10 ± 1.1 µM | 27 ± 0.9 µM | 29 ± 1.5 µM | 29 ± 3.2 µM | GI50 [1]: 42 ± 6.2 µM; GI50 [5]: > 50 µM; GI50 [6]: 40 ± 4.5 µM
3 | CCCNC1=C(c2ccccc2)C(=O)C(NCCC)=C(c2cccc3ccccc23)C1=O [compound 42, 2-(Naphthalene-1-yl)-5-phenyl-3,6-bis-(propylamino)cyclohexa-2,5-diene-1,4-dione] | 71 ± 3% | 69 ± 4% | 77 ± 4% | 79 ± 1% | 63 ± 3% | 81 ± 1% | 70 ± 3% | 56 ± 4% | 52 ± 1% | 76 ± 2% | 56 ± 9% | 76 ± 1% | 226 to 228 °C | – | – | – | – | – | – | – | –
4 | COC1=C(c2ccccc2)C(=O)C(OC)=C(c2ccccc2)C1=O [compound 30, 2,5-Dimethoxy-3,6-diphenylcyclohexa-2,5-diene-1,4-dione] | 73 ± 4% | 52 ± 5% | > 100% | > 100% | 26 ± 8% | 59 ± 6% | 35 ± 5% | > 100% | > 100% | 63 ± 5% | > 100% | > 100% | 150 to 152 °C | 30 ± 1.8 µM | 7 ± 0.98 µM | 5.9 µM | 7 ± 0.1 µM | 12 ± 0.9 µM | 20 ± 2 µM | 6.2 ± 0.3 µM | GI50 [1]: 16 ± 1.2 µM; GI50 [5]: > 50 µM; GI50 [6]: > 50 µM; GI50 [7]: > 50 µM; GI50 [12]: 8.9 ± 1.6 µM
5 | COC1=CC(=O)C(OC)=C(c2ccc(CO)cc2)C1=O [compound 17, 3-(4-(Hydroxymethyl)phenyl)-2,5-dimethoxycyclohexa-2,5-diene-1,4-diene] | < 10% | < 10% | < 10% | 53 ± 5% | < 10% | < 10% | < 10% | > 100% | 22 ± 4% | < 10% | 21 ± 10% | < 10% | 116 to 118 °C | 45 ± 2.3 µM | 36 ± 2 µM | 22 ± 0.9 µM | ~11 µM | 33 ± 1.3 µM | 37 ± 1 µM | 37 ± 0.7 µM | GI50 [12]: 49 µM
6 | COC1=C(c2cccc(-c3ccccc3)c2)C(=O)C(OC)=C(c2ccc3ccccc3c2)C1=O [compound 37, 2,5-Dimethoxy-3-(biaryl-3-yl)-6-(naphthalene-3-yl)cyclohexa-2,5-diene-1,4-dione] | > 100% | 74 ± 3% | 88 ± 4% | 76 ± 3% | 95 ± 1% | > 100% | > 100% | > 100% | > 100% | 91 ± 2% | 85 ± 3% | > 100% | 119 to 121 °C | 14 ± 1 µM | 10 ± 2.6 µM | 11 ± 0.9 µM | 6.7 ± 0.3 µM | 9.3 ± 1.2 µM | 8.3 ± 1 µM | 13 ± 1 µM | GI50 [1]: 5.4 ± 0.4 µM; GI50 [5]: 11 ± 0.3 µM; GI50 [6]: 6 ± 0.9 µM; GI50 [7]: 9.8 ± 0.7 µM; GI50 [12]: 11 ± 1.3 µM
